Laboratory results taken from patent US8524744B2, “Arylamine ketones, their preparation methods, the pharmaceutical composition containing them and their use” (Institute of Mataria Medica, Chinese Academy of Medical …, priority 2004, dated 2013).
Structures can show the parent of a compound that is named as a salt.

How the values were obtained:
[1] = tested on: polymorphonuclear leucocytes from rat pleural cavity; experiment: release of β-glucuronidase by polymorphonuclear leucocytes from rat pleural cavity in vitro (PAF as irritant); format: cell-based
Outline: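 Carrageenan-elicited pleural PMNs from Wistar rats (2.5×10^6 cells/ml, Dulbecco's buffer) were incubated with compound 15 min at 37° C, then cytochalasin B 5 min, then PAF 5 min. β-Glucuronidase in supernatant was assayed with phenolphthalein-glucuronic acid, 18 h at 37° C, OD 550 nm after NaOH.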

[2] = tested on: production of NO in macrophages from mouse peritoneal cavity; experiment: production of NO in macrophages from mouse peritoneal cavity (LPS and PAF); format: cell-based; settings: Macrophage, costimulated by LPS (1×10^−9 mol·L^−1) and PAF (1×10^−6 mol·L^−1), 24 hr, read-out: IC50, inhibition of the production of NO
Method: 4% of sodium mercaptoethanol was injected into C57BL/6 mouse peritoneal cavity to induce macrophages. The cells in peritoneal cavity were collected after injection for 3-4 days. 500 μl of cells were inoculated in the well of 24 wells plate which was placed in the CO2 incubator at 37° C. for 2.5 hr to make the cells adherent. The cells were rinsed by 1640 culture media. 495 μl of 1640 media containing irritant and 5 μl the compound or solvent were added into each well. The plate was incubated for 24 hr. The supernatant was taken out and mixed with the same volume of Griess agent. The reaction fluid was kept at room temperature for 10 min and the optical density was measured at 550 nm. The numbers read was transferred into the content of NO.

[3] = tested on: mouse ear edema induced by croton oil; experiment: mouse ear edema induced by croton oil; format: in vivo; settings: orally, 50 mg·kg^−1, Kunming mice
Method: Kuming mice (male, 18-22 g) were randomly divided into two groups (treatment and control) with 10 animals for each group. The animals were orally administrated with compounds or solvent, respectively. 1 hr later, 50 μl of 2% croton oil was smeared on the two sides of mouse left ear. After 4 hr the mice were sacrificed by cervical vertebra displacement. The two ears were cut off and the central sections were excised using a punch with a diameter of 8 mm and weighed. Edema was quantified as the weight difference between the two sections.

[4] = tested on: mouse paw swelling induced by carrageenan; experiment: mouse paw swelling induced by carrageenan; format: in vivo; settings: orally, 50 mg·kg^−1, Kunming mice
Method: Kunming mice (male, 18-22 g) were randomly divided into two groups (treatment and control) with 10 animals for each group. The animals were orally administrated with compounds or solvent, respectively. 1 hr later, 50 μl of 1% carrageenan was intracutaneously injected into the sole of right posterior foot. After 4 hr the animals were sacrificed by displacing cervical vertebra. The two paws were cut off at ankle joint and weighed. The swelling was evaluated by the difference of the weights of two paws.

[5] = tested on: cutaneous vascular permeability in mice induced by PAF; experiment: increase of cutaneous vascular permeability in mice induced by PAF; format: in vivo, mouse; settings: orally, 50 mg·kg^−1, Kunming mice
Method: Kunming mice (male, 18-22 g) were randomly divided into two groups (treatment and control) with 10 animals for each group. The animals were orally administrated with the compounds or solvent, respectively. 1 hr later, 0.25 ml of 1% evans blue dye was injected into the tail vein. After 10 min, 0.1 ml of PAF (1×10^−8 mol·L^−1) was intracutaneously injected into the dorsal skin shaved. 1 hr later, the animals were sacrificed by cervical vertebra displacement. The skin with blue spot was cut off. The evans blue dye was extracted by 0.8 ml of mixed solution of acetone and normal saline (7:3). The supernatant was transferred into the 96-well plate. The optical density was measured at 620 nm.

[6] = tested on: rat paw swelling induced by carrageenan; experiment: rat paw swelling induced by carrageenan; format: in vivo; settings: orally, 100 mg·kg^−1, Wistar rats
Method: Wistar rats (male, 180±20 g) were randomly divided into two groups (treatment and control) with 10 animals for each group. The animals were orally administrated with the compound or solvent, respectively. 1 hr later, 100 μl of 1% carrageenan was intracutaneously injected into the sole of right posterior foot. The perimeter of the ankle joint inflamed was measured at indicated time. The swelling level was evaluated by the difference of perimeters between the inflamed foot and non-inflamed foot.

[7] = tested on: rat granuloma induced by cotton ball; experiment: rat granuloma induced by cotton ball; format: in vivo; settings: orally, 100 mg·kg^−1, 7 days, Wistar rats
Method: Wistar rats (male, 165±15 g) were randomly divided into two groups (treatment and control) with 10 animals for each group. 10 mg of steriled cotton ball was planted into the two groins of the rat under the anaesthetized by ether. The animals were orally administrated with the compound for 7 days. At seventh day the cotton ball was taken out, dried by the oven and weighed. The hyperplasia of granuloma was evaluated by the increase of weight of dried cotton ball.

[8] = tested on: rat arthritis induced by type II collagen; experiment: rat arthritis induced by type II collagen; format: in vivo; settings: 100 mg · kg^−1 × 13 d, orally, Wistar rat
Method: (§1) 0.1 ml of type II H collagen (2 mg·ml^−1) was intracutaneously injected into the hind foot of Wistar rat (male, 100±10 g) (d0). Seven days later 0.1 ml of type II collagen was intracutaneously injected into the root of tail. At 19th day (d19) the animals inflamed were selected to supply the experiment and randomly divided into two groups. […] The perimeter of the ankle joint of two hind feet, weight of body was measured and the systemic inflammation (including the toes of front and hind feet, ears and tails) was judged by scoring every 3 days. At 41th day 40 μl of 0.2% type II collagen was intracutaneously injected into the right ear. Twenty-four hr later the edema level was evaluated by weighing the ponderance of ear piece (diameter: 8 mm). At 42th day the blood was collected by decapitating. The serum was separated by centrifugating. The contents of antibody for anti-type II collagen, cytokine TNF-α, IL-1β in serum were determined by ELISA kit.

IgG in serum = experiment: IgG (antibody for anti-type II collagen) in serum of rat with arthritis induced by type II collagen; format: in vivo; settings: Dose 100 mg · kg^−1 × 13 d, orally
Method: as §1

Structure (SMILES): CCOC(=O)C1CCN(CCC(=O)/C=C/c2ccc(Cl)cc2)CC1 [Compound 3, 5-[(4-Ethoxycarbonyl)piperidyl]-1-(4-chlorophenyl)-1-penten-3-one hydrochloride]
- Inhibition (%) of β-glucuronidase release ([1]; Dose 2 × 10^−6 mol · L^−1, Irritant 1 × 10^−7 mol · L^−1): 142.96%
- IC50 ([1]; Leucocyte, rat polymorphonuclear leucocytes): 0.226 nM
- IC50 [2]: 225 nM
- Inhibition (%) of mouse ear edema [3]: 33.52%
- Inhibition (%) of mouse paw swelling [4]: 32.52%
- Inhibition (%) of increase of cutaneous vascular permeability [5]: 53.23%
- Inhibition (%) of rat paw swelling ([6]; 1 h): 49.7%
- Inhibition (%) of rat paw swelling ([6]; 2 h): 55.5%
- Inhibition (%) of rat paw swelling ([6]; 3 h): 44.2%
- Inhibition (%) of rat paw swelling ([6]; 4 h): 29.0%
- Inhibition (%) of rat paw swelling ([6]; 5 h): 19.4%
- Inhibition (%) of rat granuloma [7]: 37.93%
- Inhibition (%) Score for systemic inflammation [8]: 52.6%
- Inhibition (%) Swelling of left ankle joint [8]: 67.5%
- Inhibition (%) Swelling of right ankle joint [8]: 68.8%
- Inhibition (%) of production of IgG in serum (IgG in serum): 38.4%
